Measurements as given in publication PMC9415509, “Pro-Apoptotic Antitumoral Effect of Novel Acridine-Core Naphthoquinone Compounds against Oral Squamous Cell Carcinoma” (Molecules, 2022).
Where two headings read alike, the source gives them in different places.

Assays:
[1] = Solubility observation during MTT testing; format: physicochemical
Method: All 26 acridine-core naphthoquinone compounds were submitted to the MTT assay to assess their cytotoxicity. […] These compounds were excluded from further biological experimentation. First, the assay was conducted on the SCC9 OSCC cell line and the results were analyzed by a nonlinear regression curve to determine the value of the half maximal inhibitory concentration (IC50). […] Anticancer activities of these compounds are reported here for the first time.

SCC9 (OSCC cell) = test: MTT cell viability assay (cytotoxicity), SCC9; format: cell-based, human; settings: for IC50: read-out: SCC9—Oral Cancer IC50; for SCC9 S.I.: IC50 normal oral fibroblasts / IC50 SCC9
Method: (§1) Cells and reagents. Human SCC-4, SCC-9, and SCC-25 cells, derived from a human oral tongue SCC (squamous cell carcinoma) were obtained from the ATCC (CRL-1624, CRL-1629, and CRL-1628, respectively) and maintained in 1:1 DMEM/F12 (Dulbecco’s modified Eagle medium and Ham’s F12 medium; Gibco (Thermo Fisher, Waltham, MA, USA)) supplemented with 10% (v/v) FBS (fetal bovine serum; Invitrogen, Thermo Fisher, Waltham, MA, USA) and 400 ng/mL hydrocortisone (Sigma-Aldrich Co., St. Louis, MO, USA). Primary normal human gingival fibroblasts were obtained from the ATCC (PCS-201-018) and maintained in DMEM supplemented with 10% (v/v) FBS and were used in a maximum of six passages. The cells were grown in a humidified environment containing 5% CO2 at 37 °C. […] Carboplatin stock was prepared in water (Fauldcarbo®; LibbsFarmacêutica, São Paulo, SP, Brazil) and was used as a standard anticancer compound.
(§2) Cell viability assay (cytotoxicity) and compound stability assay. The viability of SCC cell lines and primary human fibroblast cells was evaluated using the MTT assay as in [48]. Briefly, the cells were grown in triplicates in 96-well plates (5 × 10^3 cells/well) until confluence. Then, the medium was removed, fresh medium was added, and the cells were returned to the incubator in the presence of different compounds. DMSO at the same concentrations was used as a 100% cell viability control. After 48 h, the cells were incubated with 5 mg/mL MTT reagent (3-(4,5-dimethyl-2-thiazolyl)-2,5-diphenyl-2-H-tetrazolium bromide) (Sigma-Aldrich Co., St. Louis, MO, USA) for 3.5 h. After that, formazan crystals were dissolved in MTT solvent solution (DMSO/methanol 1:1 v/v) and the absorbance at 560 nm was evaluated using an EPOCH microplate spectrophotometer (BioTek Instruments, Winooski, VT, USA) with the background absorbance at 670 nm subtracted.
(§3) Statistical analysis, IC50 calculation. The data are presented as means ±\SD. IC50 values for the MTT assays were obtained by nonlinear regression using the […] 5.0 program (Intuitive Software for Science, San Diego, CA, USA) from at least three independent experiments. A dose–response (inhibitor) vs. response curve using the least squares method was used to determine the IC50, SD, and R^2 of the data. The selectivity index was calculated as SI = IC50 of the compound in normal oral fibroblast cells/IC50 of the same compound for each oral cancer cell line (SCC-4, SCC-9, and SCC-25) and the mean was calculated when indicated.

[2] = tested on: Primary normal human gingival fibroblasts; test: MTT cell viability assay, normal fibroblasts; format: cell-based; settings: 48 h, read-out: Primary Gingival Fibroblast IC50
Method: as §1, §2, §3

SCC4 OSCC cell line = test: MTT cell viability assay (cytotoxicity), SCC4; format: cell-based, human; settings: for SCC4 S.I.: IC50 normal oral fibroblasts / IC50 SCC4; for IC50: read-out: Oral Tumor Cells SCC4 IC50
Method: as §1, §2, §3

SCC25 OSCC cell line = test: MTT cell viability assay (cytotoxicity), SCC25; format: cell-based, human; settings: for SCC25 S.I.: IC50 normal oral fibroblasts / IC50 SCC25; for IC50: read-out: Oral Tumor Cells SCC25 IC50
Method: as §1, §2, §3

[3] = formed crystals at low concentrations in MTT assay
[4] = Homo sapiens, SCC-9, SCC9, 48 h, MTT (Table 1)
[5] = Homo sapiens, Fibroblast, primary gingival fibroblasts, MTT
[6] = Homo sapiens, SCC-4, SCC4, 48 h, MTT
[7] = Homo sapiens, SCC-25, SCC25, 48 h, MTT

solubility [1, 3] | melting point | Compound | IC50 (SCC9 (OSCC cell); [4]) | other results
 |  | 12-(3,3-dimethylphenyl)-3,4-dihydrobenzo[b]acridine-1,6,11(2H,5H,12H)-trione [4a] |  | solubility [1]: highly insoluble
highly insoluble |  | CC1(C)CC(=O)C2=C(C1)NC1=C(C(=O)c3ccccc3C1=O)C2c1ccccc1Cl (centres unmarked) [4b, 12-(2-chlorophenyl)-3,3-dimethyl-3,4-dihydrobenzo[b]acridine-1,6,11(2H,5H,12H)-trione] |  | 
 | 249 to 251 °C | CC1(C)CC(=O)C2=C(C1)NC1=C(C(=O)c3ccccc3C1=O)C2c1cccc(Cl)c1 (centres unmarked) [4c, 12-(3-chlorophenyl)-3,3-dimethyl-3,4-dihydrobenzo[b]acridine-1,6,11(2H,5H,12H)-trione] | 14.7 µM | 
 | 287 to 288 °C | CC1(C)CC(=O)C2=C(C1)NC1=C(C(=O)c3ccccc3C1=O)C2c1ccc(Cl)cc1 (centres unmarked) [4d, 12-(4-chlorophenyl)-3,3-dimethyl-3,4-dihydrobenzo[b]acridine-1,6,11(2H,5H,12H)-trione] | 51.6 µM | 
highly insoluble | 295 to 297 °C | CC1(C)CC(=O)C2=C(C1)NC1=C(C(=O)c3ccccc3C1=O)C2c1ccc(F)cc1 (centres unmarked) [4f, 12-(4-fluorophenyl)-3,3-dimethyl-3,4-dihydrobenzo[b]acridine-1,6,11(2H,5H,12H)-trione] |  | 
highly insoluble | 260 to 261 °C | CC1(C)CC(=O)C2=C(C1)NC1=C(C(=O)c3ccccc3C1=O)C2c1c(F)c(F)c(F)c(F)c1F (centres unmarked) [4g, 12-(perfluorophenyl)-3,3-dimethyl-3,4-dihydrobenzo[b]acridine-1,6,11(2H,5H,12H)-trione] |  | 
 | 293 to 295 °C | CC1(C)CC(=O)C2=C(C1)NC1=C(C(=O)c3ccccc3C1=O)C2c1ccc(Br)cc1 (centres unmarked) [4h, 12-(4-bromophenyl)-3,3-dimethyl-3,4-dihydrobenzo[b]acridine-1,6,11(2H,5H,12H)-trione] | 5.86 µM | 
highly insoluble |  | Cc1ccc(C2C3=C(CC(C)(C)CC3=O)NC3=C2C(=O)c2ccccc2C3=O)c(C)c1 (centres unmarked) [4i, 12-(2,4-dimethylphenyl)-3,3-dimethyl-3,4-dihydrobenzo[b]acridine-1,6,11(2H,5H,12H)-trione] |  | 
 | 238 to 239 °C | COc1ccc(C2C3=C(CC(C)(C)CC3=O)NC3=C2C(=O)c2ccccc2C3=O)cc1OC (centres unmarked) [4l, 12-(3,4-dimethoxyphenyl)-3,3-dimethyl-3,4-dihydrobenzo[b]acridine-1,6,11(2H,5H,12H)-trione] | 4.46 µM | 
highly insoluble | 287 to 288 °C | O=C1CCCC2=C1C(c1ccccc1)C1=C(N2)C(=O)c2ccccc2C1=O (centres unmarked) [5a, 12-phenyl-3,4-dihydrobenzo[b]acridine-1,6,11(2H,5H,12H)-trione] |  | 
highly insoluble |  | O=C1CCCC2=C1C(c1ccccc1Cl)C1=C(N2)C(=O)c2ccccc2C1=O (centres unmarked) [5b, 12-(2-chlorophenyl)-3,4-dihydrobenzo[b]acridine-1,6,11(2H,5H,12H)-trione] |  | 
 | 217 to 218 °C | O=C1CCCC2=C1C(c1cccc(Cl)c1)C1=C(N2)C(=O)c2ccccc2C1=O (centres unmarked) [5c, 12-(3-chlorophenyl)-3,4-dihydrobenzo[b]acridine-1,6,11(2H,5H,12H)-trione] | 8.93 µM | 
 | 230 to 231 °C | O=C1CCCC2=C1C(c1ccc(Cl)cc1)C1=C(N2)C(=O)c2ccccc2C1=O (centres unmarked) [5d, 12-(4-chlorophenyl)-3,4-dihydrobenzo[b]acridine-1,6,11(2H,5H,12H)-trione] | 2.21 µM | 
 |  | O=C1CCCC2=C1C(c1ccc(Cl)cc1Cl)C1=C(N2)C(=O)c2ccccc2C1=O (centres unmarked) [5e, 12-(2.4-dichlorophenyl)-3,4-dihydrobenzo[b]acridine-1,6,11(2H,5H,12H)-trione] | 4.75 µM | 
highly insoluble | 255 to 256 °C | O=C1CCCC2=C1C(c1ccc(F)cc1)C1=C(N2)C(=O)c2ccccc2C1=O (centres unmarked) [5f, 12-(4-fluorophenyl)-3,4-dihydrobenzo[b]acridine-1,6,11(2H,5H,12H)-trione] |  | 
highly insoluble |  | O=C1CCCC2=C1C(c1c(F)c(F)c(F)c(F)c1F)C1=C(N2)C(=O)c2ccccc2C1=O (centres unmarked) [5g, 12-(perfluorophenyl)-3,4-dihydrobenzo[b]acridine-1,6,11(2H,5H,12H)-trione] |  | 
 | 257 to 258 °C | O=C1CCCC2=C1C(c1ccc(Br)cc1)C1=C(N2)C(=O)c2ccccc2C1=O (centres unmarked) [5h, 12-(4-bromophenyl)-3,4-dihydrobenzo[b]acridine-1,6,11(2H,5H,12H)-trione] | 7.63 µM | 
highly insoluble | 263 to 264 °C | Cc1ccc(C2C3=C(CCCC3=O)NC3=C2C(=O)c2ccccc2C3=O)c(C)c1 (centres unmarked) [5i, 12-(2,4-dimethylphenyl)-3,4-dihydrobenzo[b]acridine-1,6,11(2H,5H,12H)-trione] |  | 
 |  | COc1ccc(C2C3=C(CCCC3=O)NC3=C2C(=O)c2ccccc2C3=O)c(OC)c1 (centres unmarked) [5j, 12-(2,4-dimethoxyphenyl)-3,4-dihydrobenzo[b]acridine-1,6,11(2H,5H,12H)-trione] | 6.84 µM | 
 | 219 to 220 °C | COc1ccc(OC)c(C2C3=C(CCCC3=O)NC3=C2C(=O)c2ccccc2C3=O)c1 (centres unmarked) [5k, 12-(2,5-dimethoxyphenyl)-3,4-dihydrobenzo[b]acridine-1,6,11(2H,5H,12H)-trione] | 7.2 µM | 
 | 228 to 230 °C | COc1ccc(C2C3=C(CCCC3=O)NC3=C2C(=O)c2ccccc2C3=O)cc1OC (centres unmarked) [5l, 12-(3,4-dimethoxyphenyl)-3,4-dihydrobenzo[b]acridine-1,6,11(2H,5H,12H)-trione] | 5.9 µM | 
 | 236 to 237 °C | COc1cc(C2C3=C(CCCC3=O)NC3=C2C(=O)c2ccccc2C3=O)cc(OC)c1OC (centres unmarked) [5m, 12-(3,4,5-trimethoxyphenyl)-3,4-dihydrobenzo[b]acridine-1,6,11(2H,5H,12H)-trione] | 3.32 µM | 
 |  | N.N.O=C([O-])C1(C(=O)[O-])CCC1.[Pt+2] [Carboplatin, carboplatin] |  | IC50 ([2]; primary gingival fibroblasts, MTT): 560 µM; SCC4 S.I. (SCC4 OSCC cell line): 3.1; IC50 (SCC4 OSCC cell line; SCC4, 48 h, MTT): 180 µM; SCC9 S.I. (SCC9 (OSCC cell)): 2.2; IC50 (SCC9 (OSCC cell); SCC9, 48 h, MTT (Table 1)): 250 µM; SCC25 S.I. (SCC25 OSCC cell line): 3.0; IC50 (SCC25 OSCC cell line; SCC25, 48 h, MTT): 186 µM
 |  | COc1cccc2c1C(=O)c1c(O)c3c(c(O)c1C2=O)C[C@@](O)(C(=O)CO)C[C@@H]3O[C@H]1C[C@H](N)[C@H](O)[C@H](C)O1 [Doxorubicin, doxorubicin] | 7.8 µM | IC50 [2, 5]: 12.3 µM; IC50 (SCC4 OSCC cell line; [6]): 4.56 µM; SCC4 S.I. (SCC4 OSCC cell line): 2.7; SCC9 S.I. (SCC9 (OSCC cell)): 1.6; IC50 (SCC25 OSCC cell line; [7]): 1.27 µM; SCC25 S.I. (SCC25 OSCC cell line): 9.7
 |  | CC(C)=CCC1=C(O)C(=O)c2ccccc2C1=O [Lapachol, lapachol] | 58.3 µM | IC50 [2, 5]: 106 µM; IC50 (SCC4 OSCC cell line; [6]): 76.9 µM; SCC4 S.I. (SCC4 OSCC cell line): 1.4; SCC9 S.I. (SCC9 (OSCC cell)): 1.8; IC50 (SCC25 OSCC cell line; [7]): 93.8 µM; SCC25 S.I. (SCC25 OSCC cell line): 1.1
 |  | CC(C)=CC[C@@H](O)C1=CC(=O)c2c(O)ccc(O)c2C1=O [Shikonin, shikonin] |  | IC50 ([2]; Homo sapiens, Fibroblast): 2.48 µM; IC50 (SCC4 OSCC cell line; Homo sapiens, SCC-4, 48 h): 3.19 µM; SCC4 S.I. (SCC4 OSCC cell line): 0.8; IC50 (SCC9 (OSCC cell); Homo sapiens, SCC-9, 48 h): 1.22 µM; SCC9 S.I. (SCC9 (OSCC cell)): 2.0; IC50 (SCC25 OSCC cell line; Homo sapiens, SCC-25, 48 h): 2.47 µM; SCC25 S.I. (SCC25 OSCC cell line): 1.0
